{"source": "ChEMBL document CHEMBL5370643", "about": "“Discovery of MK-1468: A Potent, Kinome-Selective, Brain-Penetrant Amidoisoquinoline LRRK2 Inhibitor for the Potential Treatment of Parkinson's Disease” (J Med Chem, 2023)", "key": {"[1]": {"assay": "Protein binding in dog plasma incubated for 4 hrs by equilibrium dialysis method", "assay_type": "ADME, cell-free, Canis lupus familiaris", "settings": "read-out: PPB (converted)"}, "[2]": {"assay": "Toxicity in Wistar-Han rat assessed as effect on diastolic blood pressure at 60 mg/kg, po administered as single dose and measured upto 24 hrs by telemetric analysis", "assay_type": "organism-based", "settings": "in vivo"}, "[3]": {"biological_target": "Nav1.5 (SCN5A) (Homo sapiens, UniProt Q14524)", "sequence (Q14524 whole entry)": "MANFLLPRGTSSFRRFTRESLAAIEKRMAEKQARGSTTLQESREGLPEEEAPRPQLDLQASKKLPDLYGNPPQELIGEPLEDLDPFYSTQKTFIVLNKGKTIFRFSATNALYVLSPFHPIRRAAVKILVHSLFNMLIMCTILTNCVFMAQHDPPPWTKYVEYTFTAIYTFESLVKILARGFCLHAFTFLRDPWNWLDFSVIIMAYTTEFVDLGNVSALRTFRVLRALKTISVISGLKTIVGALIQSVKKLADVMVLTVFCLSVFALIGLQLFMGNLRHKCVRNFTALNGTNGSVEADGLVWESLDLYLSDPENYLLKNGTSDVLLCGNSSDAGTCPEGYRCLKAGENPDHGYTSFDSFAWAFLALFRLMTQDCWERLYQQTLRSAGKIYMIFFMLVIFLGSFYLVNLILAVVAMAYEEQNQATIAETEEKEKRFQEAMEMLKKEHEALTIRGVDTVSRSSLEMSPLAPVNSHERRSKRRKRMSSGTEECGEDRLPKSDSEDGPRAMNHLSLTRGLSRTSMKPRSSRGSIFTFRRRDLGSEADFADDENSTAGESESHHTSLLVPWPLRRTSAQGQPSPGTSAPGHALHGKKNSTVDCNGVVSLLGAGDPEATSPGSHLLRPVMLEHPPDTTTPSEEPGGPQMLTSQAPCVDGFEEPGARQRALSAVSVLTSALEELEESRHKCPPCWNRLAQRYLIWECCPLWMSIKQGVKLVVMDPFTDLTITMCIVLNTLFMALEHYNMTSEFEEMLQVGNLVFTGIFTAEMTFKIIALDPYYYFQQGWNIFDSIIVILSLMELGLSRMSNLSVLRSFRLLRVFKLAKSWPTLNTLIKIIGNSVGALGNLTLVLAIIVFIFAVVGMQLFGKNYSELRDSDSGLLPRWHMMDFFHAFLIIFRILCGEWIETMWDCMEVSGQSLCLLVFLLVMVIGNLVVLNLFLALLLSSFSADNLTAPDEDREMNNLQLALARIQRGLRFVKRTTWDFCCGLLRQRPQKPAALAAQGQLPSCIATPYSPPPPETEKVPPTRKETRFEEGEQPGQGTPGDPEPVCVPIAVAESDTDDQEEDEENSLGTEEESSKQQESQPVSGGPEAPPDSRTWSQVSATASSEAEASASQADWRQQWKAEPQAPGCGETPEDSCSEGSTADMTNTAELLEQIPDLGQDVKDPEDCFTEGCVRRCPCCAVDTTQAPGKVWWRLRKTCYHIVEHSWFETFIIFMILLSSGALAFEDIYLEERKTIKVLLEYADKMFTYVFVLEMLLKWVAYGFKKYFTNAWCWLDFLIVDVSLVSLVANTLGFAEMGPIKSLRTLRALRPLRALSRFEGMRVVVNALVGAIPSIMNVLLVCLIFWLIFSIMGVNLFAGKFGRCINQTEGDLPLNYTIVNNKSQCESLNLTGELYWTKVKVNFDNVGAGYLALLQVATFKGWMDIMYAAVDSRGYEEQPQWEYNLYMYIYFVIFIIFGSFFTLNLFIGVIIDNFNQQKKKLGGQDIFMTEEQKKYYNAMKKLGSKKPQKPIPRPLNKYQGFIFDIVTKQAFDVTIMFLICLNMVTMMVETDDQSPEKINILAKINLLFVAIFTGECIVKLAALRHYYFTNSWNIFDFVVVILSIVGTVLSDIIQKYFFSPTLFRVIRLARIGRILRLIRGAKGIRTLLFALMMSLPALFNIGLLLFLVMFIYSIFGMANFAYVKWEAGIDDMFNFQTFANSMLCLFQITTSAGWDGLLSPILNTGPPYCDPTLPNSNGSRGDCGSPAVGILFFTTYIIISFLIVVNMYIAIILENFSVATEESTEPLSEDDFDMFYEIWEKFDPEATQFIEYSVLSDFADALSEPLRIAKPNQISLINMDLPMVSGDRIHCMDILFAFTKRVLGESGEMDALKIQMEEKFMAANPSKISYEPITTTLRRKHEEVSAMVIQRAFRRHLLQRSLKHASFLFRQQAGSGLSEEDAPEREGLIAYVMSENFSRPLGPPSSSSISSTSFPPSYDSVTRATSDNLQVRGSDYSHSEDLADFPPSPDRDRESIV", "assay": "Inhibition of human Nav1.5 expressed in HEK293 cells at 10 uM by QPatch voltage clamp assay relative to control", "assay_type": "cell-based", "settings": "HEK293 cells expressing human Nav1.5"}, "[4]": {"assay": "Toxicity in Wistar-Han rat assessed as erosion of nonglandular stomach at 750 mg/kg, po administered once daily for 7 days", "assay_type": "organism-based", "settings": "in vivo, 168 h, time 7 day"}, "[5]": {"assay": "AUC (0 to 24 hrs) in Wistar-Han rat at 48 mg administered twice a day by LC-MS/MS analysis", "assay_type": "ADME", "parameters": "dose 48 mg", "settings": "in vivo"}, "[6]": {"assay": "AUCtau in Wistar-Han rat at 48 mg administered twice a day by LC-MS/MS analysis", "assay_type": "ADME", "parameters": "dose 48 mg", "settings": "in vivo"}, "[7]": {"assay": "Kinetic solubility of compound in PBS at pH 7 measured after 24 hrs by UPLC/DAD analysis", "assay_type": "physicochemical", "settings": "read-out: Kinetic_solubility"}, "[8]": {"assay": "Cardiotoxicity in guinea pig assessed as effect on QRS interval at 5 to 20 mg/kg, iv administered continuously for 20 min by ECG analysis", "assay_type": "toxicity, organism-based, Cavia porcellus", "settings": "in vivo, dose 5-20 mg/kg"}, "[9]": {"assay": "Toxicity in Wistar-Han rat assessed as effect on body temperature at 60 mg/kg, po administered as single dose and measured upto 24 hrs by telemetric analysis", "assay_type": "organism-based", "settings": "in vivo"}, "[10]": {"assay": "Genotoxicity in CHO-WBL cells incubated for 3 to 24 hrs in presence or absence of rat liver S9 fraction by micronucleus assay", "assay_type": "toxicity, Cricetulus griseus", "settings": "chinese hamster, time 3-24 hrs"}, "[11]": {"assay": "Toxicity in Wistar-Han rat assessed as effect on body temperature at 225 mg/kg, po administered as single dose and measured upto 24 hrs by telemetric analysis", "assay_type": "organism-based", "settings": "in vivo"}, "[12]": {"assay": "Toxicity in po dosed Wistar-Han rat assessed as NOAEL measured upto 24 hrs", "assay_type": "organism-based", "settings": "in vivo, read-out: Activity"}, "[13]": {"test_system": "PBMC", "assay": "Inhibition of LRRK2 in rat PBMC assessed as Ser935 dephosphorylation", "assay_type": "cell-based"}, "[14]": {"assay": "AUC in Wistar-Han rat at 750 mg/kg, po administered once daily for 7 days", "assay_type": "ADME, organism-based", "parameters": "dose 750 mg/kg, time 7 day, route po", "settings": "in vivo"}, "[15]": {"biological_target": "hERG (KCNH2) (Homo sapiens, UniProt Q12809)", "sequence (Q12809 whole entry)": "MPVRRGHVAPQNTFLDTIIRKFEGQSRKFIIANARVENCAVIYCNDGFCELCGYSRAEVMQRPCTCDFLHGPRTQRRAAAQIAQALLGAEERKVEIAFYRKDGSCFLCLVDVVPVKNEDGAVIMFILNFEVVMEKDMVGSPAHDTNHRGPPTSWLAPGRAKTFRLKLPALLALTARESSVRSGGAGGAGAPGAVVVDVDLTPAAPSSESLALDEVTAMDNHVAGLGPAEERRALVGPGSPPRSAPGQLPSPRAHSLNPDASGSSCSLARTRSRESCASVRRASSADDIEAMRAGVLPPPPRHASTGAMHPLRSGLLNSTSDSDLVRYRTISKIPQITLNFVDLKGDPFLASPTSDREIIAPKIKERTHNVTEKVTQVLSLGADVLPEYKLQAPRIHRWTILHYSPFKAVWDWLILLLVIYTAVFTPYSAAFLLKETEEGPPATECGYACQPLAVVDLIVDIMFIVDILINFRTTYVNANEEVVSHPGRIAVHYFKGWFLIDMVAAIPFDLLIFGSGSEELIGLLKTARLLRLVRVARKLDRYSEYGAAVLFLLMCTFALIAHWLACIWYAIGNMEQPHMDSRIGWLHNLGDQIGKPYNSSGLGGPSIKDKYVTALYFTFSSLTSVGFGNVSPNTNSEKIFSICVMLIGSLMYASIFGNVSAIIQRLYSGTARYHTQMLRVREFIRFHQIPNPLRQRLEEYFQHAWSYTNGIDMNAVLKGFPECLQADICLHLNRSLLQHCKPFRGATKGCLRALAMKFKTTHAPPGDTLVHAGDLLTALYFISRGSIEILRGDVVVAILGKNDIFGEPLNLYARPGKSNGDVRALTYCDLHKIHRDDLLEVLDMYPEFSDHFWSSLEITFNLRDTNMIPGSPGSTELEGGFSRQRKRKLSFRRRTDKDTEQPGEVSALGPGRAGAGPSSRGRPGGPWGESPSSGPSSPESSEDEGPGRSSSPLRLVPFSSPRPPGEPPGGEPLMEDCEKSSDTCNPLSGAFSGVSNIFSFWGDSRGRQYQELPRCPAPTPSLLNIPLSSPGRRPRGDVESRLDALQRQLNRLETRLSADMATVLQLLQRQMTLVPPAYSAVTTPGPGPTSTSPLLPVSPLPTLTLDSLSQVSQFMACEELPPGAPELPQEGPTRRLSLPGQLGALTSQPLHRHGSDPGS", "assay": "Inhibition of hERG expressed in CHO cells at 30 uM by QPatch voltage clamp assay relative to control", "assay_type": "toxicity, cell-based", "settings": "CHO cells expressing hERG"}, "[16]": {"assay": "AUC in rhesus monkey at 200 mg/kg, po administered once daily for 7 days", "assay_type": "ADME, organism-based, Macaca mulatta", "parameters": "dose 200 mg/kg, time 7 day, route po", "settings": "in vivo"}, "[17]": {"assay": "Toxicity in Wistar-Han rat assessed as histopathological change at 750 mg/kg, po administered once daily for 7 days", "assay_type": "organism-based", "settings": "in vivo, 168 h, time 7 day"}, "[18]": {"assay": "Cardiotoxicity in iv dose guinea pig assessed as increase in QTc interval at high dose administered continuously for 20 min by ECG analysis", "assay_type": "toxicity, organism-based, Cavia porcellus", "settings": "in vivo"}, "[19]": {"assay": "AUC in Wistar-Han rat at 225 mg/kg, po administered once daily for 7 days", "assay_type": "ADME, organism-based", "parameters": "time 7 day, dose 225 mg/kg, route po", "settings": "in vivo"}, "[20]": {"assay": "Toxicity in rhesus monkey assessed as body weight loss at 100 to 800 mg/kg, po administered once daily for 7 days", "assay_type": "organism-based, Macaca mulatta", "settings": "in vivo, 168 h, dose 100-800 mg/kg, time 7 day"}, "[21]": {"assay": "Kinetic solubility of compound in PBS at pH 2 measured after 24 hrs by UPLC/DAD analysis", "assay_type": "physicochemical", "settings": "read-out: Kinetic_solubility"}, "[22]": {"assay": "Toxicity in rhesus monkey assessed as clinical observation at 100 to 800 mg/kg, po administered once daily for 7 days", "assay_type": "organism-based, Macaca mulatta", "settings": "in vivo, 168 h, dose 100-800 mg/kg, time 7 day"}, "[23]": {"assay": "Toxicity in Wistar-Han rat assessed as NOAEL measured after 7 days", "settings": "in vivo, time 7 day"}, "[24]": {"assay": "Toxicity in Wistar-Han rat assessed as body weight loss at 750 mg/kg, po administered once daily for 7 days", "assay_type": "organism-based", "settings": "in vivo, 168 h, time 7 day"}, "[25]": {"assay": "Toxicity in rhesus monkey assessed as lung type II pneumocyte hypertrophy at 200 to 800 mg/kg, po administered once daily for 7 days", "assay_type": "organism-based, Macaca mulatta", "settings": "in vivo, 168 h, dose 200-800 mg/kg, time 7 day"}, "[26]": {"assay": "In vivo inhibition of LRRK2 in rhesus monkey assessed as reduction in Ser935 phosphorylation in brain at 100 to 800 mg/kg, po administered once daily for 7 days", "assay_type": "functional, Macaca mulatta", "settings": "dose 100-800 mg/kg, time 7 day"}, "[27]": {"test_system": "Brain", "assay": "In vivo inhibition of LRRK2 in Wistar-Han rat assessed as reduction in Ser935 phosphorylation in brain at 1 to 100 mg/kg, po measured after 2 hrs", "assay_type": "functional", "settings": "dose 1-100 mg/kg"}, "[28]": {"assay": "Intrinsic clearance in Beagle dog at 0.5 mg/kg, iv measured after 24 hrs by LC-MS/MS analysis", "assay_type": "ADME, organism-based, Canis lupus familiaris", "settings": "in vivo"}, "[29]": {"assay": "Toxicity in Wistar-Han rat assessed as squamous hyperplasia of nonglandular stomach at 750 mg/kg, po administered once daily for 7 days", "assay_type": "organism-based", "settings": "in vivo, 168 h, time 7 day"}, "[30]": {"assay": "Genotoxicity in human TK6 cells assessed as induction of DNA damage upto 31.9 uM", "assay_type": "toxicity, cell-based", "settings": "tk6, 31.9 µM"}, "[31]": {"assay": "Oral bioavailability in rhesus monkey at 10 mg/kg measured after 24 hrs by LC-MS/MS analysis", "assay_type": "ADME, organism-based, Macaca mulatta", "settings": "in vivo"}, "[32]": {"assay": "Total clearance in Beagle dog at 0.5 mg/kg, iv measured after 24 hrs by LC-MS/MS analysis", "assay_type": "ADME, organism-based, Canis lupus familiaris", "settings": "in vivo"}, "[33]": {"assay": "Toxicity in Wistar-Han rat assessed as effect on heart rate at 60 mg/kg, po administered as single dose and measured upto 24 hrs by telemetric analysis", "assay_type": "organism-based", "settings": "in vivo"}, "[34]": {"biological_target": "Nav1.5 (Homo sapiens, UniProt Q14524)", "assay": "Inhibition of human Nav1.5 expressed in HEK293 cells at 30 uM by QPatch voltage clamp assay relative to control", "assay_type": "cell-based", "settings": "HEK293 cells expressing human Nav1.5"}, "[35]": {"assay": "Mutagenicity in Salmonella typhimurium TA98 at 30 to 5000 ug/plate incubated for 48 hrs in presence of Wistar-Han rat S9 fraction by Ames test", "assay_type": "toxicity, subcellular", "settings": "salmonella enterica subsp. enterica serovar typhimurium, s9, 48 h"}, "[36]": {"test_system": "rat Mdr1a P-gp", "assay": "Apparent permeability across apical to basolateral side in LLC-PK1 cells transfected with rat Mdr1a P-gp incubated for 3 hrs by LC-MS/MS analysis", "settings": "pig"}, "[37]": {"assay": "Cardiotoxicity in guinea pig assessed as effect on PR interval at 5 to 20 mg/kg, iv administered continuously for 20 min by ECG analysis", "assay_type": "toxicity, organism-based, Cavia porcellus", "settings": "in vivo, dose 5-20 mg/kg"}, "[38]": {"test_system": "mouse BCRP", "assay": "Efflux ratio of apparent permeability across basolateral to apical over apical to basolateral side in MDCK-II cells transfected with mouse BCRP incubated for 3 hrs by LC-MS/MS analysis", "settings": "dog"}, "[39]": {"assay": "Oral bioavailability in Beagle dog at 5 mg/kg measured after 24 hrs by LC-MS/MS analysis", "assay_type": "ADME, organism-based, Canis lupus familiaris", "settings": "in vivo"}, "[40]": {"assay": "Oral bioavailability in Wistar-Han rat at 5 mg/kg measured after 24 hrs by LC-MS/MS analysis", "assay_type": "ADME, organism-based", "settings": "in vivo"}, "[41]": {"assay": "Toxicity in Wistar-Han rat assessed as effect on arterial pulse pressure at 60 mg/kg, po administered as single dose and measured upto 24 hrs by telemetric analysis", "assay_type": "organism-based", "settings": "in vivo"}}}
{"molecule": "C[C@@]1(N2CCN(c3cc4cc(NC(=O)[C@H]5CC56CCOCC6)ncc4cc3Cl)CC2)COC[C@@H]1O", "values": [{"measurement": "fraction unbound at 4 h", "setting": "[1]", "value": 0.13}, {"measurement": "Activity", "setting": "[2]", "value": "Non-Toxic"}, {"measurement": "inhibition at 10 µM", "setting": "[3]", "value": 23, "unit": "%"}, {"measurement": "Activity", "setting": "[4]", "value": "Toxic"}, {"measurement": "AUC", "setting": "[5]", "value": 6, "unit": "µM·h"}, {"measurement": "AUC", "setting": "[6]", "value": 3, "unit": "µM·h"}, {"measurement": "solubility kinetic at 24 h", "setting": "[7]", "value": "< 3", "unit": "µM"}, {"measurement": "Activity", "setting": "[8]", "value": "Non-Toxic"}, {"measurement": "Activity", "setting": "[9]", "value": "Non-Toxic"}, {"measurement": "Activity", "setting": "[10]", "value": "Non-Toxic"}, {"measurement": "Activity", "setting": "[11]", "value": "Non-Toxic"}, {"measurement": "NOAEL at 24 h", "setting": "[12]", "value": 60, "unit": "mg/kg"}, {"measurement": "fIC50", "setting": "[13]", "value": 25, "unit": "nM"}, {"measurement": "AUC at 168 h", "setting": "[14]", "value": 395, "unit": "µM·h"}, {"measurement": "inhibition at 30 µM", "setting": "[15]", "value": 39, "unit": "%"}, {"measurement": "AUC at 168 h", "setting": "[16]", "value": 25, "unit": "µM·h"}, {"measurement": "Activity", "setting": "[17]", "value": "Non-Toxic"}, {"measurement": "Activity", "setting": "[18]", "value": "Toxic"}, {"measurement": "AUC at 168 h", "setting": "[19]", "value": 88, "unit": "µM·h"}, {"measurement": "Activity", "setting": "[20]", "value": "Non-Toxic"}, {"measurement": "solubility kinetic at 24 h", "setting": "[21]", "value": 182, "unit": "µM"}, {"measurement": "Activity", "setting": "[22]", "value": "Non-Toxic"}, {"measurement": "NOAEL at 168 h", "setting": "[23]", "value": 225, "unit": "mg/kg/day"}, {"measurement": "Activity", "setting": "[24]", "value": "Toxic"}, {"measurement": "Activity", "setting": "[25]", "value": "Toxic"}, {"measurement": "fIC50", "setting": "[26]", "value": 7, "unit": "nM"}, {"measurement": "fIC50", "setting": "[27]", "value": 33, "unit": "nM"}, {"measurement": "CL", "setting": "[28]", "value": 149, "unit": "mL/min/kg"}, {"measurement": "Activity", "setting": "[29]", "value": "Toxic"}, {"measurement": "Activity", "setting": "[30]", "value": "Non-Toxic"}, {"measurement": "bioavailability", "setting": "[31]", "value": 9, "unit": "%"}, {"measurement": "clearance", "setting": "[32]", "value": 11, "unit": "mL/min/kg"}, {"measurement": "Activity", "setting": "[33]", "value": "Non-Toxic"}, {"measurement": "inhibition at 30 µM", "setting": "[34]", "value": 34, "unit": "%"}, {"measurement": "Activity", "setting": "[35]", "value": "Non-Toxic"}, {"measurement": "Papp A→B at 3 h", "setting": "[36]", "value": 30, "unit": "×10⁻⁶ cm/s"}, {"measurement": "Activity", "setting": "[37]", "value": "Non-Toxic"}, {"measurement": "efflux ratio at 3 h", "setting": "[38]", "value": 2.6}, {"measurement": "bioavailability", "setting": "[39]", "value": 100, "unit": "%"}, {"measurement": "bioavailability", "setting": "[40]", "value": 56, "unit": "%"}, {"measurement": "Activity", "setting": "[41]", "value": "Non-Toxic"}]}
